Converted amounts (≈) assume the structure as drawn.

23 compounds from PMC12620416 (Molecular Plant Pathology, 2025) can be followed below.

T1 sequence (A0A0K0GFE1 1-315): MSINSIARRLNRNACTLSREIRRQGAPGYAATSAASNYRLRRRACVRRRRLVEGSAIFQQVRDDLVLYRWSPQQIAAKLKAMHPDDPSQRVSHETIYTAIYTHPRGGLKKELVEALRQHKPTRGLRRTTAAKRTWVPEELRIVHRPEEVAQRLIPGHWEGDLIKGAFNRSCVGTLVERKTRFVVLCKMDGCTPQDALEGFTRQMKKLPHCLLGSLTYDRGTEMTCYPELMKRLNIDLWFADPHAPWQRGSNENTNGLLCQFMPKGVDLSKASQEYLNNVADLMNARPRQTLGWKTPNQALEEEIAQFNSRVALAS

In the first experiment the test system is Xanthomonas oryzae pv. oryzae (Xoo) PXO99A. As to the kind of experiment: microbe, parasite or virus in culture. The following applies: read-out: EC50 (mg/L).
For `C=C[C@]1(C)C[C@@H](OC(=O)CSc2ncc(OC)c(OS(=O)(=O)c3ccc(C)cc3)n2)[C@]2(C)[C@H](C)CC[C@]3(CCC(=O)[C@H]32)[C@@H](C)[C@@H]1O` [J2], the EC50 was 0.26 ± 0.17 mg/L (≈ 0.386 µM). On the same count and under the same terms, then `C=C[C@]1(C)C[C@@H](OC(=O)CSc2ncc(OC)c(OS(=O)(=O)c3cccc(Cl)c3F)n2)[C@]2(C)[C@H](C)CC[C@]3(CCC(=O)[C@H]32)[C@@H](C)[C@@H]1O` [J12], with 0.26 ± 0.12 mg/L (≈ 0.366 µM). The same measure, in the same setting: with `C=C[C@]1(C)C[C@@H](OC(=O)CSc2ncc(OC)c(OS(=O)(=O)CC)n2)[C@]2(C)[C@H](C)CC[C@]3(CCC(=O)[C@H]32)[C@@H](C)[C@@H]1O` [J1] the figure was 0.41 ± 0.15 mg/L (≈ 0.671 µM); with `C=C[C@]1(C)C[C@@H](OC(=O)CSc2ncc(OC)c(OS(=O)(=O)CCCC)n2)[C@]2(C)[C@H](C)CC[C@]3(CCC(=O)[C@H]32)[C@@H](C)[C@@H]1O` [J21], 2.79 ± 0.39 mg/L (≈ 4.37 µM).

Turning to `C=C[C@]1(C)C[C@@H](OC(=O)CSc2ncc(OC)c(O)n2)[C@]2(C)[C@H](C)CC[C@]3(CCC(=O)[C@H]32)[C@@H](C)[C@@H]1O` [J9], the EC50 is 0.12 ± 0.02 mg/L (≈ 0.231 µM).

As to `C=C[C@]1(C)C[C@@H](OC(=O)CSc2ncc(OC)c(OS(=O)(=O)c3ccc(OC(F)(F)F)cc3)n2)[C@]2(C)[C@H](C)CC[C@]3(CCC(=O)[C@H]32)[C@@H](C)[C@@H]1O` [J24], the EC50 is 0.26 ± 0.05 mg/L (≈ 0.35 µM). Same read-out and setting: then `C=C[C@]1(C)C[C@@H](OC(=O)CSc2ncc(OC)c(OS(=O)(=O)c3ccc(F)cc3)n2)[C@]2(C)[C@H](C)CC[C@]3(CCC(=O)[C@H]32)[C@@H](C)[C@@H]1O` [J16], with 0.26 ± 0.03 mg/L (≈ 0.384 µM).

In the case of `C=C[C@]1(C)C[C@@H](OC(=O)CSc2ncc(OC)c(OS(=O)(=O)c3ccc(C#N)cc3)n2)[C@]2(C)[C@H](C)CC[C@]3(CCC(=O)[C@H]32)[C@@H](C)[C@@H]1O` [J18], the EC50 was found to be 0.29 ± 0.09 mg/L (≈ 0.424 µM). Same read-out and setting: then `C=C[C@]1(C)C[C@@H](OC(=O)CSc2ncc(OC)c(OS(=O)(=O)c3cccc(Br)c3)n2)[C@]2(C)[C@H](C)CC[C@]3(CCC(=O)[C@H]32)[C@@H](C)[C@@H]1O` [J7], with 0.27 ± 0.11 mg/L (≈ 0.366 µM); and `C=C[C@]1(C)C[C@@H](OC(=O)CSc2ncc(OC)c(OS(=O)(=O)c3ccc(CC)cc3)n2)[C@]2(C)[C@H](C)CC[C@]3(CCC(=O)[C@H]32)[C@@H](C)[C@@H]1O` [J23], with 0.58 ± 0.07 mg/L (≈ 0.844 µM); and `C=C[C@]1(C)C[C@@H](OC(=O)CSc2ncc(OC)c(OS(=O)(=O)c3ccc(C(F)(F)F)cc3)n2)[C@]2(C)[C@H](C)CC[C@]3(CCC(=O)[C@H]32)[C@@H](C)[C@@H]1O` [J3], with 0.81 ± 0.08 mg/L (≈ 1.11 µM). As for `C=C[C@]1(C)C[C@@H](OC(=O)CSc2ncc(OC)c(OS(=O)(=O)c3ccc(Cl)cc3)n2)[C@]2(C)[C@H](C)CC[C@]3(CCC(=O)[C@H]32)[C@@H](C)[C@@H]1O` [J22], the EC50 came to 0.34 ± 0.17 mg/L (≈ 0.49 µM). `C=C[C@]1(C)C[C@@H](OC(=O)CSc2ncc(OC)c(OS(=O)(=O)c3c(C)cc(C)cc3C)n2)[C@]2(C)[C@H](C)CC[C@]3(CCC(=O)[C@H]32)[C@@H](C)[C@@H]1O` [J19]: the EC50 was found to be 0.16 ± 0.06 mg/L (≈ 0.228 µM).

Consider `C=C[C@]1(C)C[C@@H](OC(=O)CSc2ncc(OC)c(OS(=O)(=O)c3c(F)cccc3F)n2)[C@]2(C)[C@H](C)CC[C@]3(CCC(=O)[C@H]32)[C@@H](C)[C@@H]1O` [J4], for which the EC50 is 0.34 ± 0.04 mg/L (≈ 0.489 µM).

For `C=C[C@]1(C)C[C@@H](OC(=O)CSc2ncc(OC)c(OS(=O)(=O)c3c(F)c(F)c(F)c(F)c3F)n2)[C@]2(C)[C@H](C)CC[C@]3(CCC(=O)[C@H]32)[C@@H](C)[C@@H]1O` [J5], the EC50 was determined as 0.77 ± 0.56 mg/L (≈ 1.03 µM). Still for that read-out and setting: then `C=C[C@]1(C)C[C@@H](OC(=O)CSc2ncc(OC)c(OS(=O)(=O)c3ccc(F)c(F)c3F)n2)[C@]2(C)[C@H](C)CC[C@]3(CCC(=O)[C@H]32)[C@@H](C)[C@@H]1O` [J17], with 0.22 ± 0.09 mg/L (≈ 0.309 µM); and `C=C[C@]1(C)C[C@@H](OC(=O)CSc2ncc(OC)c(OS(=O)(=O)c3ccc(Cl)cc3Br)n2)[C@]2(C)[C@H](C)CC[C@]3(CCC(=O)[C@H]32)[C@@H](C)[C@@H]1O` [J14], with 0.3 ± 0.02 mg/L (≈ 0.389 µM). The same measure, in the same setting: then `C=C[C@]1(C)C[C@@H](OC(=O)CSc2ncc(OC)c(OS(=O)(=O)c3c(C)c(C)cc(C)c3C)n2)[C@]2(C)[C@H](C)CC[C@]3(CCC(=O)[C@H]32)[C@@H](C)[C@@H]1O` [J20], with 0.35 ± 0.06 mg/L (≈ 0.49 µM). For the compound `C=C[C@]1(C)C[C@@H](OC(=O)CSc2ncc(OC)c(OS(=O)(=O)c3cc(Br)c(F)cc3F)n2)[C@]2(C)[C@H](C)CC[C@]3(CCC(=O)[C@H]32)[C@@H](C)[C@@H]1O` [J13], the EC50 is 0.22 ± 0.05 mg/L (≈ 0.284 µM).

For the compound `C=C[C@]1(C)C[C@@H](OC(=O)CSc2ncc(OC)c(OS(=O)(=O)c3ccc(Br)cc3OC(F)(F)F)n2)[C@]2(C)[C@H](C)CC[C@]3(CCC(=O)[C@H]32)[C@@H](C)[C@@H]1O` [J11], the EC50 is 0.39 ± 0.27 mg/L (≈ 0.475 µM). Consider `C=C[C@]1(C)C[C@@H](OC(=O)CSc2ncc(OC)c(OS(=O)(=O)C3CC3)n2)[C@]2(C)[C@H](C)CC[C@]3(CCC(=O)[C@H]32)[C@@H](C)[C@@H]1O` [J15], for which the EC50 worked out at 0.37 ± 0.09 mg/L (≈ 0.594 µM). Turning to `C=C[C@]1(C)C[C@@H](OC(=O)CSc2ncc(OC)c(OS(=O)(=O)c3c(C)c(C)c(C)c(C)c3C)n2)[C@]2(C)[C@H](C)CC[C@]3(CCC(=O)[C@H]32)[C@@H](C)[C@@H]1O` [J6], the EC50 stood at 0.33 ± 0.09 mg/L (≈ 0.453 µM). As for `C=C[C@]1(C)C[C@@H](OC(=O)CSc2ncc(OC)c(OS(=O)(=O)c3cccc(F)c3)n2)[C@]2(C)[C@H](C)CC[C@]3(CCC(=O)[C@H]32)[C@@H](C)[C@@H]1O` [J10], the EC50 was determined as 0.2 ± 0.13 mg/L (≈ 0.295 µM).

The next experiment addresses T1, ISXoo15 transposase (Xanthomonas oryzae, UniProt A0A0K0GFE1).
T1 construct: gene PXO_03433
Nature of the experiment: biochemical.
Settings: not given
For `C=C[C@]1(C)C[C@@H](OC(=O)CSc2ncc(OC)c(O)n2)[C@]2(C)[C@H](C)CC[C@]3(CCC(=O)[C@H]32)[C@@H](C)[C@@H]1O` [J9], binding was put at a Kd of 187 nM.
